The results in this text go back to patent US20060105008A1, “Compositions and methods for reducing vaginal pH” (priority 2002, published 2006).

Each structure is given as a SMILES string. In brackets after ≈: the same amount, converted by molar mass. Where two headings read alike, the source gives them in different places. Some results are limits rather than exact numbers.

Holding throughout (assay): In vitro evaluation of azole compounds, MIC
Common to all, as to assay type: cell-based

The subject of assay [1] is Peptostreptococcus magnus. The following applies: Finegoldia magna, one table line per isolate, read-out: MIC's of drug needed to inhibit the growth of organism.
In assay [2] the test system is Peptostreptococcus tetradius. The note with it: for MIC: Anaerococcus tetradius, read-out: MIC's of drug needed to inhibit the growth of organism.
The subject of assay [3] is Peptostreptococcus asaccharolyticus. The following applies: Peptoniphilus asaccharolyticus, one table line per isolate, read-out: MIC's of drug needed to inhibit the growth of organism.
In a further assay the test system is Prevotella bivia. The following applies: one table line per isolate; for MIC: read-out: MIC's of drug needed to inhibit the growth of organism.
A further assay relates to Prevotella disiens. The note with it: one table line per isolate; for MIC: read-out: MIC's of drug needed to inhibit the growth of organism.
A further assay deals with Prevotella intermedia. The note with it: one table line per isolate; for MIC: read-out: MIC's of drug needed to inhibit the growth of organism.
For assay [4], the system named is Prevotella melaninogenica. The following applies: one table line per isolate; for MIC: read-out: MIC's of drug needed to inhibit the growth of organism.
In another assay the test system is Mobiluncus mulieris. The following applies: read-out: MIC's of drug needed to inhibit the growth of organism.
For the next assay, the system named is Bacillus fragilis. The note with it: read-out: MIC's of drug needed to inhibit the growth of organism.
Another assay deals with Bacillus theta. The note with it: read-out: MIC's of drug needed to inhibit the growth of organism.
In a further assay the test system is Lactobacillus plantarum. The following applies: Lactiplantibacillus plantarum, read-out: MIC's of drug needed to inhibit the growth of organism.
In a further assay the test system is Lactobacillus species. The note with it: read-out: MIC's of drug needed to inhibit the growth of organism.
Assay [5] deals with Lactobacillus acidophilus. The following applies: one table line per isolate; for MIC: read-out: MIC's of drug needed to inhibit the growth of organism.
Another assay has as its system Gardnerella vaginalis. The note with it: one table line per isolate, read-out: MIC's of drug needed to inhibit the growth of organism.
Setting [6] is: Peptostreptococcus tetradius, one table line per isolate.

Consider `CC(C)N1CCN(c2ccc(OCC3COC(Cn4cncn4)(c4ccc(Cl)cc4Cl)O3)cc2)CC1` (stereo not shown) [Terconazole], for which the MIC was 256 µg/mL (≈ 481 µM) in assay [1]; 256 µg/mL (≈ 481 µM) in assay [2] (setting [6]); 256 µg/mL (≈ 481 µM) in assay [3]; 256 µg/mL (≈ 481 µM) with Prevotella bivia; 128 µg/mL (≈ 240 µM) in the assay with Prevotella disiens; 128 µg/mL (≈ 240 µM) in the assay with Prevotella intermedia. Further, the MIC in assay [4] came out at 64 µg/mL (≈ 120 µM); in the assay on Mobiluncus mulieris it was 256 µg/mL (≈ 481 µM); with Bacillus fragilis, 256 µg/mL (≈ 481 µM); with Bacillus theta, 256 µg/mL (≈ 481 µM); with Lactobacillus plantarum, 256 µg/mL (≈ 481 µM); in the assay with Lactobacillus species, 512 µg/mL (≈ 962 µM). In addition, in [5], the MIC turned out to be 512 µg/mL (≈ 962 µM). In addition, in the assay on Prevotella intermedia, the “MIC's of drug needed to inhibit the growth of organism” value worked out at 256 µg/mL.

For the molecule `Cc1ncc([N+](=O)[O-])n1CCO` [Metronidazole], the MIC in [2] (setting [6]) was found to be 1 µg/mL (≈ 5.84 µM); in the assay on Prevotella bivia, 1 µg/mL (≈ 5.84 µM); in the assay with Prevotella disiens, 0.5 µg/mL (≈ 2.92 µM); in the assay with Prevotella intermedia, 1 µg/mL (≈ 5.84 µM); in the assay on Mobiluncus mulieris, 4 µg/mL (≈ 23.4 µM); in the assay with Bacillus fragilis, 0.5 µg/mL (≈ 2.92 µM). Moreover, the MIC with Bacillus theta was 2 µg/mL (≈ 11.7 µM); with Lactobacillus plantarum, 1 µg/mL (≈ 5.84 µM); with Lactobacillus species, > 32 µg/mL; in assay [5], > 32 µg/mL. Further, the “MIC's of drug needed to inhibit the growth of organism” value in [2] (setting [6]) turned out to be 0.5 µg/mL; against Prevotella disiens it was 1 µg/mL.

On to `CCS(=O)(=O)CCn1c([N+](=O)[O-])cnc1C` [Tinidazole], for which the MIC in assay [2] (setting [6]) came out at 0.5 µg/mL (≈ 2.02 µM); in assay [3], 1 µg/mL (≈ 4.04 µM); in the assay on Prevotella bivia, 1 µg/mL (≈ 4.04 µM); in the assay on Prevotella intermedia, 0.5 µg/mL (≈ 2.02 µM); in assay [4], 2 µg/mL (≈ 8.09 µM); with Mobiluncus mulieris it was 1 µg/mL (≈ 4.04 µM). The MIC was 0.5 µg/mL (≈ 2.02 µM) with Bacillus fragilis; 1 µg/mL (≈ 4.04 µM) in the assay with Bacillus theta; 0.65 µg/mL (≈ 2.63 µM) in the assay with Lactobacillus plantarum; > 128 µg/mL in the assay on Lactobacillus species; > 128 µg/mL in [5]. The “MIC's of drug needed to inhibit the growth of organism” value in assay [2] (setting [6]) was 0.25 µg/mL; against Prevotella intermedia it was 1 µg/mL; in assay [4] it was 1 µg/mL; in assay [5] it was <128 µg/mL.

For the molecule `Clc1ccc(COC(Cn2ccnc2)c2ccc(Cl)cc2Cl)c(Cl)c1` (stereo not shown) [Miconazole], the “MIC's of drug needed to inhibit the growth of organism” value against Prevotella bivia was 64 µg/mL. Also, the MIC with Prevotella bivia is 128 µg/mL (≈ 308 µM); in the assay on Prevotella disiens, 64 µg/mL (≈ 154 µM); in the assay with Prevotella intermedia, 64 µg/mL (≈ 154 µM); in assay [4] it was 64 µg/mL (≈ 154 µM); with Mobiluncus mulieris, 8 µg/mL (≈ 19.2 µM); with Bacillus fragilis, > 128 µg/mL. For the same molecule, the MIC with Bacillus theta was 128 µg/mL (≈ 308 µM); in the assay with Lactobacillus plantarum, 32 µg/mL (≈ 76.9 µM); in the assay with Lactobacillus species it was > 128 µg/mL; in assay [5], > 128 µg/mL.

On to `OC(Cn1cncn1)(Cn1cncn1)c1ccc(F)cc1F` [Fluconazole], for which the MIC (in the assay with Gardnerella vaginalis; in assay [1]; in [2]; in assay [3]; in the assay with Prevotella bivia; in the assay on Prevotella disiens) was > 2050 µg/mL in each case. The MIC (in the assay on Prevotella intermedia; in assay [4]; in the assay with Mobiluncus mulieris; in the assay with Bacillus fragilis; in the assay on Bacillus theta; with Lactobacillus plantarum) was > 2050 µg/mL in each case. In addition, the MIC (in the assay with Lactobacillus species; in [5]) was > 2050 µg/mL in each case. In addition, the “MIC's of drug needed to inhibit the growth of organism” value in assay [2] was found to be 2048 µg/mL.
